biological target: T1, ΔF508-CFTR (Homo sapiens, UniProt P13569, DEL508-508); assay: hBE equivalent current (Ieq) assay: AUC of equivalent chloride current after forskolin/VX-770 in primary lung epithelial cells homozygous for ΔF508; format: cell-based; details: relative to CFTR amplifier (Compound A)+VX-809 (3 uM), compound at 10 uM and Compound A at 3 uM, 24 h treatment
T1 construct: Primary lung epithelial cells homozygous for the Cystic Fibrosis-causing ΔF508 mutation were differentiated for a minimum of 4 weeks; endogenous in cells; host or cells: primary lung epithelial cells (hBE) homozygous for ΔF508, differentiated at an air-liquid interface
Summary of the method: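 Readout is the increase over vehicle in equivalent chloride current AUC from forskolin/VX-770 addition to bumetanide, measured by current clamp at 36 °C after benzamil block of ENaC. Cultures were homozygous ΔF508 primary lung epithelium grown ≥4 weeks at air-liquid interface and exposed basolaterally to compound for 24 h.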

T1 sequence (P13569 with tags, fused parts or gaps DEL508-508): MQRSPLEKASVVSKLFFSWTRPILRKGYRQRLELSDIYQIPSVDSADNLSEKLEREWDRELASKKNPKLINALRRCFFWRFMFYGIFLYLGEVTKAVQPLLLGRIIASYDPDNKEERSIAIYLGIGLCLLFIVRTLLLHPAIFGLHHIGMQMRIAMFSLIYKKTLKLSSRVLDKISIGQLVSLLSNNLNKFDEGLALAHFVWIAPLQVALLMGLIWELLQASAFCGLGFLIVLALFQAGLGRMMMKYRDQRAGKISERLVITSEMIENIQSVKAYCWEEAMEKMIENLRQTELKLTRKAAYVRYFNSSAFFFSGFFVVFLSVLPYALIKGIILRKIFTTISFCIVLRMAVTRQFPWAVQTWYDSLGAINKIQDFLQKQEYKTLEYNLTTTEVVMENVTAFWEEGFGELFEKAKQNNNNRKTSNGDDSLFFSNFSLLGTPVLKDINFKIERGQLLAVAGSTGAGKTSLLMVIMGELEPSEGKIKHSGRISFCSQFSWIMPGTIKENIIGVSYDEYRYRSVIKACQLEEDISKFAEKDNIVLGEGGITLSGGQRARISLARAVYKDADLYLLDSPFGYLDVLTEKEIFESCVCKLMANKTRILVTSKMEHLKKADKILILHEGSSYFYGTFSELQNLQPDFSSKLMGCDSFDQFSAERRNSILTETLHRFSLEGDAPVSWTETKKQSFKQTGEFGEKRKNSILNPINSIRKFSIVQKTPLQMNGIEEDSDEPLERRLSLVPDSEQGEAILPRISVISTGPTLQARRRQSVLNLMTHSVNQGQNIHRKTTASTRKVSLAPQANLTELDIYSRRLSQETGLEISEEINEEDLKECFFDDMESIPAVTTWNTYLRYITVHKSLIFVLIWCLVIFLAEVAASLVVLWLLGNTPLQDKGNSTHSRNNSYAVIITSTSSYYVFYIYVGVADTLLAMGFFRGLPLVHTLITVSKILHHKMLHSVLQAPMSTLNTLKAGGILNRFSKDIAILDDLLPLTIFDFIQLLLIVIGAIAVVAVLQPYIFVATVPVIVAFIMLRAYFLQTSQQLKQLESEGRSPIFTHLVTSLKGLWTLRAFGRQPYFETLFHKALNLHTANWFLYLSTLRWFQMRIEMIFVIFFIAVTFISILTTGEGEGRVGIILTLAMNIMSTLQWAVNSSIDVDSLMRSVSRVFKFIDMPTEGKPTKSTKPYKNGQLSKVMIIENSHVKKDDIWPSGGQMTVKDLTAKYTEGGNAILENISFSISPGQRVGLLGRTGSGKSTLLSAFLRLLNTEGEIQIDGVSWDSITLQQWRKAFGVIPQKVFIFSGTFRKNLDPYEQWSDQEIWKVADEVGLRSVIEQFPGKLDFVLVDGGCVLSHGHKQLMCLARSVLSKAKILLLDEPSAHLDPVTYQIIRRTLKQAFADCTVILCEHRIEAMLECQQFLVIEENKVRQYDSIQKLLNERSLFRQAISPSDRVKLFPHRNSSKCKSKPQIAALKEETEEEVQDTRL

SMILES | Activity
Cc1c(-c2cc(C(=O)O)c3cc(OCC(F)F)cc(C)c3n2)oc2ccccc12 [Compound 119, 6-(2,2-Difluoroethoxy)-8-methyl-2-(3-methyl-1-benzofuran-2-yl)quinoline-4-carboxylic acid] | + (activity<50% of an CFTR amplifier (Compound A)+VX-809 (3 uM) with compound at 10 uM and Compound A at 3 uM)
CCc1ccc(OC(CC)c2ccccc2)c2c(C(=O)O)cc(-c3csc4ccccc34)nc12 (stereo in doubt) [Compound 185, 2-(1-Benzothiophen-3-yl)-8-ethyl-5-[(1S)-1-phenylpropoxy]quinoline-4-carboxylic acid] | ++ (activity>50% of CFTR amplifier+VX-809 (3 uM) with compound at 10 uM and Compound A at 3 uM)
Cc1c(-c2cc(C(=O)[O-])c3c(OCc4ccc(S(C)(=O)=O)cc4)ccc(C)c3n2)sc2ccccc12.[Na+] [Compound 264] | ++ (activity>50% of CFTR amplifier+VX-809 (3 uM) with compound at 10 uM and Compound A at 3 uM)
Cc1c(-c2cc(C(=O)O)c3c(OCc4ccccc4)ccc(C)c3n2)oc2ccccc12 [Compound 30, 5-(benzyloxy)-8-methyl-2-(3-methyl-1-benzofuran-2-yl)quinoline-4-carboxylic acid] | ++ (activity>50% of CFTR amplifier+VX-809 (3 uM) with compound at 10 uM and Compound A at 3 uM)
Cc1ccc(OCc2ccccc2)c2c(C(=O)O)cc(-c3snc4ccccc34)nc12 [Compound 86, 2-(2,1-Benzothiazol-3-yl)-5-(benzyloxy)-8-methylquinoline-4-carboxylic Acid] | ++ (activity>50% of CFTR amplifier+VX-809 (3 uM) with compound at 10 uM and Compound A at 3 uM)
CCc1ccc(OC2CCCCC2)c2c(C(=O)O)cc(-c3c(C)oc4ccccc34)nc12 [Compound 176] | ++ (activity>50% of CFTR amplifier+VX-809 (3 uM) with compound at 10 uM and Compound A at 3 uM)
Cc1c(-c2cc(C(=O)[O-])c3c(OCC4CCC5(CC4)COC5)ccc(C)c3n2)oc2ccccc12.[Na+] [Compound 367] | ++ (activity>50% of CFTR amplifier+VX-809 (3 uM) with compound at 10 uM and Compound A at 3 uM)
COc1cc(C)c2nc(-c3oc4ccccc4c3C)cc(C(=O)O)c2c1 [Compound 23, 6-Methoxy-8-methyl-2-(3-methyl-1-benzofuran-2-yl)quinoline-4-carboxylic acid] | ++ (activity>50% of CFTR amplifier+VX-809 (3 uM) with compound at 10 uM and Compound A at 3 uM)
Cc1c(-c2cc(C(=O)[O-])c3c(OC4CC(C)(C)OC(C)(C)C4)ccc(C)c3n2)oc2ccccc12.[Na+] [Compound 334] | ++ (activity>50% of CFTR amplifier+VX-809 (3 uM) with compound at 10 uM and Compound A at 3 uM)
Cc1c(-c2cc(C(=O)[O-])c3c(O[C@H]4C[C@@H](c5ccccc5)C4)ccc(C)c3n2)sc2ccccc12.[Na+] [Compound 284, Sodium 8-Methyl-2-(3-methyl-1-benzothiophen-2-yl)-5-[(1s,3s)-3-phenylcyclobutoxy]quinoline-4-carboxylate] | ++ (activity>50% of CFTR amplifier+VX-809 (3 uM) with compound at 10 uM and Compound A at 3 uM)
Cc1c(-c2cc(C(=O)[O-])c3c(O[C@@H](C)C4CCOCC4)ccc(C)c3n2)oc2ccccc12.[Na+] [Compound 246, Sodium 5-((1S)-1-(tetrahydro-2H-pyran-4-yl)ethoxy)-8-methyl-2-(3-methyl-1-benzofuran-2-yl)quinoline-4-carboxylate] | ++ (activity>50% of CFTR amplifier+VX-809 (3 uM) with compound at 10 uM and Compound A at 3 uM)
Cc1c(-c2cc(C(=O)O)c3c(OCc4ccccc4)ccc(F)c3n2)oc2ccccc12 [Compound 110, 5-(Benzyloxy)-8-fluoro-2-(3-methyl-1-benzofuran-2-yl)quinoline-4-carboxylic acid] | ++ (activity>50% of CFTR amplifier+VX-809 (3 uM) with compound at 10 uM and Compound A at 3 uM)
Cc1c(-c2cc(C(=O)O)c3cc(OC(F)(F)F)cc(C)c3n2)oc2ccccc12 [Compound 117, 8-Methyl-2-(3-methyl-1-benzofuran-2-yl)-6-(trifluoromethoxy)quinoline-4-carboxylic acid] | ++ (activity>50% of CFTR amplifier+VX-809 (3 uM) with compound at 10 uM and Compound A at 3 uM)
CCc1ccc(O[C@@H]2CCC[C@@H](C)C2)c2c(C(=O)O)cc(-c3csc4ccccc34)nc12 [Compound 184, 2-(Benzo[b]thiophen-3-yl)-8-ethyl-5-(((1R,3R)-3-methylcyclohexyl)oxy)quinoline-4-carboxylic Acid] | ++ (activity>50% of CFTR amplifier+VX-809 (3 uM) with compound at 10 uM and Compound A at 3 uM)
COC[C@H](Oc1ccc(C)c2nc(-c3sc4ccccc4c3C)cc(C(=O)[O-])c12)c1ccccc1.[Na+] [Compound 308] | ++ (activity>50% of CFTR amplifier+VX-809 (3 uM) with compound at 10 uM and Compound A at 3 uM)
Cc1ccc(O[C@@H](C)c2ccccc2)c2c(C(=O)[O-])cc(-c3cn4ccccc4n3)nc12.[Na+] [Compound 203, Sodium 2-[Imidazo[1,2-a]pyridin-2-yl]-8-methyl-5-[(1S)-1-phenylethoxy]quinoline-4-carboxylate] | + (activity<50% of an CFTR amplifier (Compound A)+VX-809 (3 uM) with compound at 10 uM and Compound A at 3 uM)

SMILES | Activity
Cc1c(-c2cc(C(=O)[O-])c3c(O[C@H]4C[C@H]5CC[C@@H](C4)O5)ccc(C)c3n2)oc2ccccc12.[Na+] [Compound 355] | ++ (activity>50% of CFTR amplifier+VX-809 (3 uM) with compound at 10 uM and Compound A at 3 uM)
Cc1cc(Cl)cc2c(C(=O)O)cc(-c3cc4ccccc4s3)nc12 [Compound 1] | + (activity<50% of an CFTR amplifier (Compound A)+VX-809 (3 uM) with compound at 10 uM and Compound A at 3 uM)
Cc1cc(C)c2nc(-c3nc4ccccc4o3)cc(C(=O)O)c2c1 [Compound 3, 2-(1,3-Benzoxazol-2-yl)-6,8-dimethylquinoline-4-carboxylic acid] | + (activity<50% of an CFTR amplifier (Compound A)+VX-809 (3 uM) with compound at 10 uM and Compound A at 3 uM)
Cc1ccc(C)c2c(C(=O)O)cc(-c3oc4ccccc4c3Cl)nc12 [Compound 38, 2-(3-Chloro-1-benzofuran-2-yl)-5,8-dimethylquinoline-4-carboxylic acid] | + (activity<50% of an CFTR amplifier (Compound A)+VX-809 (3 uM) with compound at 10 uM and Compound A at 3 uM)
Cc1c(-c2cc(C(=O)O)c3cc(Br)cc(C)c3n2)oc2ccccc12 [Compound 21, 6-bromo-8-methyl-2-(3-methyl-1-benzofuran-2-yl)quinoline-4-carboxylic acid] | ++ (activity>50% of CFTR amplifier+VX-809 (3 uM) with compound at 10 uM and Compound A at 3 uM)
Cc1c(-c2cc(C(=O)[O-])c3c(O[C@H]4C[C@H](c5ccccc5)C4)ccc(C)c3n2)oc2ccccc12.[Na+] [Compound 281, Sodium 8-Methyl-2-(3-methyl-1-benzofuran-2-yl)-5-[(1r,3r)-3-phenylcyclobutoxy]quinoline-4-carboxylate] | ++ (activity>50% of CFTR amplifier+VX-809 (3 uM) with compound at 10 uM and Compound A at 3 uM)
Cc1oc2ccccc2c1-c1cc(C(=O)O)c2c(OCC(F)F)ccc(C)c2n1 [Compound 124, 5-(2,2-Difluoroethoxy)-8-methyl-2-(2-methyl-1-benzofuran-3-yl)quinoline-4-carboxylic acid] | + (activity<50% of an CFTR amplifier (Compound A)+VX-809 (3 uM) with compound at 10 uM and Compound A at 3 uM)
Cc1cc(C)c2nc(-c3csc4ccccc34)cc(C(=O)O)c2c1 [Compound 8, 2-(1-Benzothiophen-3-yl)-6,8-dimethylquinoline-4-carboxylic acid] | + (activity<50% of an CFTR amplifier (Compound A)+VX-809 (3 uM) with compound at 10 uM and Compound A at 3 uM)
Cc1c(-c2cc(C(=O)[O-])c3c(O[C@@H](C)c4ccc(S(C)(=O)=O)cc4)ccc(C)c3n2)sc2ccccc12.[Na+] [Compound 266] | ++ (activity>50% of CFTR amplifier+VX-809 (3 uM) with compound at 10 uM and Compound A at 3 uM)
Cc1c(-c2cc(C(=O)O)c3cc(OCc4ccccc4)cc(C)c3n2)oc2ccccc12 [Compound 24, 6-(Benzyloxy)-8-methyl-2-(3-methyl-1-benzofuran-2-yl)quinoline-4-carboxylic acid] | ++ (activity>50% of CFTR amplifier+VX-809 (3 uM) with compound at 10 uM and Compound A at 3 uM)
Cc1c(-c2cc(C(=O)[O-])c3c(OCC4CCC4)ccc(C)c3n2)sc2ccccc12.[Na+] [Compound 319] | ++ (activity>50% of CFTR amplifier+VX-809 (3 uM) with compound at 10 uM and Compound A at 3 uM)
COc1cccc(COc2ccc(C)c3nc(-c4sc5ccccc5c4C)cc(C(=O)[O-])c23)c1.[Na+] [Compound 293, Sodium 5-[(3-Methoxyphenyl)methoxy]-8-methyl-2-(3-methyl-1-benzothiophen-2-yl)quinoline-4-carboxylate] | ++ (activity>50% of CFTR amplifier+VX-809 (3 uM) with compound at 10 uM and Compound A at 3 uM)
Cc1ccc(O[C@H](C)c2ccccc2)c2c(C(=O)[O-])cc(-c3cc4ccccn4n3)nc12.[Na+] [Compound 208] | ++ (activity>50% of CFTR amplifier+VX-809 (3 uM) with compound at 10 uM and Compound A at 3 uM)
Cc1c(-c2cc(C(=O)[O-])c3c(OC[C@H]4C[C@H]5CC[C@@H](C4)O5)ccc(C)c3n2)oc2ccccc12.[Na+] [Compound 357] | ++ (activity>50% of CFTR amplifier+VX-809 (3 uM) with compound at 10 uM and Compound A at 3 uM)
Cc1c(-c2cc(C(=O)O)c3cc(Cl)cc(C)c3n2)sc2ccccc12 [Compound 104, 6-Chloro-8-methyl-2-(3-methyl-1-benzothiophen-2-yl)quinoline-4-carboxylic acid] | ++ (activity>50% of CFTR amplifier+VX-809 (3 uM) with compound at 10 uM and Compound A at 3 uM)
Cc1c(-c2cc(C(=O)O)c3c(C)ccc(OCc4ccccc4)c3n2)oc2ccccc12 [Compound 40, 8-(Benzyloxy)-5-methyl-2-(3-methyl-1-benzofuran-2-yl)quinoline-4-carboxylic acid] | + (activity<50% of an CFTR amplifier (Compound A)+VX-809 (3 uM) with compound at 10 uM and Compound A at 3 uM)

Source: patent US11136313B2, “Compounds, compositions, and methods for modulating CFTR” (Proteostasis Therapeutics, Inc., priority 2015, dated 2021)
